Results: patent publication US9006464B2, “Substituted cyclopentanes having prostaglandin activity” (Allergan, Inc., priority 2007, dated 2015)

Tests used:
EP4 [1] = target: T1, EP4 (Homo sapiens, UniProt P35408); assay: EP4 binding (Ki)
Text: (§1) U.S. patent application Ser. No. 11/553,143, filed on Oct. 26, 2006, incorporated by reference herein, describes the methods used to obtain the in vitro data in Table 1 below.

EP4 [2] = target: T1, EP4; assay: EP4 Ca2+ signal assay; type: cell-based
Text: as §1

TP = target: T2, TP (Homo sapiens, UniProt P21731); assay: Other receptors Ca2+ assay, TP; type: cell-based; details: TP receptor
T2 sequence (P21731 1-343): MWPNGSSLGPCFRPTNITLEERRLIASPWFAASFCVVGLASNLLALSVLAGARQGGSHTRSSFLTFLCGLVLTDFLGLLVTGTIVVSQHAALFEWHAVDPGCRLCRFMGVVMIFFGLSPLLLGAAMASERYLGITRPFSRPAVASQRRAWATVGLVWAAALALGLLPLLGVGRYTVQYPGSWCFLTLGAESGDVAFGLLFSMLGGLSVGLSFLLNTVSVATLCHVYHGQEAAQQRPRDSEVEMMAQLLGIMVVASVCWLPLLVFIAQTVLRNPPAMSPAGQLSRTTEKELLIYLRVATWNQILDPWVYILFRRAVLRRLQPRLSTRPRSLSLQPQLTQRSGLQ
Text: as §1

EP3 = target: T3, EP3 (Homo sapiens, UniProt P43115); assay: Other receptors Ca2+ assay, EP3; type: cell-based; details: EP3 receptor
T3 sequence (P43115 1-390): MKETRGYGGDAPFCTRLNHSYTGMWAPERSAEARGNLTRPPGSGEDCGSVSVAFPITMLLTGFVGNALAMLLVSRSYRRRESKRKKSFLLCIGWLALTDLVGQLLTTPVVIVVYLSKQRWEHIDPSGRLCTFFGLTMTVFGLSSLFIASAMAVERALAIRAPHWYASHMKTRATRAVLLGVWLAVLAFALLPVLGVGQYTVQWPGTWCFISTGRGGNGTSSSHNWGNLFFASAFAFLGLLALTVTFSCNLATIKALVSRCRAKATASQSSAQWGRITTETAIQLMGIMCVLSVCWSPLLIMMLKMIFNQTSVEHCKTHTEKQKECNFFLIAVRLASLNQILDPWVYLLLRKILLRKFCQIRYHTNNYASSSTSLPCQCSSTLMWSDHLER
Text: as §1

EP2 [3] = target: T4, EP2 (Homo sapiens, UniProt P43116); assay: EP2 Ca2+ signal assay; type: cell-based
Text: as §1

EP2 [4] = target: T4, EP2; assay: EP2 cAMP assay; type: cell-based
Text: as §1

DP = target: T5, DP (Homo sapiens, UniProt Q13258); assay: Other receptors Ca2+ assay, DP; type: cell-based; details: DP receptor
T5 sequence (Q13258 1-359): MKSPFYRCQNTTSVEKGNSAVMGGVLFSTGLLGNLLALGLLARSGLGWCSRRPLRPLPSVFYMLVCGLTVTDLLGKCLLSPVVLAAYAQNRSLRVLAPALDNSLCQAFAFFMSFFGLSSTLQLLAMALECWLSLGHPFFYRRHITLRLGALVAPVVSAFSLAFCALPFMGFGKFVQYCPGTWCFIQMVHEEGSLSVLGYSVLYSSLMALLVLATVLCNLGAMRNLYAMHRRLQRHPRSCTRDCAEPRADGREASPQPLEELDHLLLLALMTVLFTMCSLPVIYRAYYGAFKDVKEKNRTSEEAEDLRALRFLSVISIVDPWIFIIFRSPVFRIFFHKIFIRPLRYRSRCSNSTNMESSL
Text: as §1

EP1 = target: T6, EP1 (Homo sapiens, UniProt P34995); assay: Other receptors Ca2+ assay, EP1; type: cell-based; details: EP1 receptor
T6 sequence (P34995 1-402): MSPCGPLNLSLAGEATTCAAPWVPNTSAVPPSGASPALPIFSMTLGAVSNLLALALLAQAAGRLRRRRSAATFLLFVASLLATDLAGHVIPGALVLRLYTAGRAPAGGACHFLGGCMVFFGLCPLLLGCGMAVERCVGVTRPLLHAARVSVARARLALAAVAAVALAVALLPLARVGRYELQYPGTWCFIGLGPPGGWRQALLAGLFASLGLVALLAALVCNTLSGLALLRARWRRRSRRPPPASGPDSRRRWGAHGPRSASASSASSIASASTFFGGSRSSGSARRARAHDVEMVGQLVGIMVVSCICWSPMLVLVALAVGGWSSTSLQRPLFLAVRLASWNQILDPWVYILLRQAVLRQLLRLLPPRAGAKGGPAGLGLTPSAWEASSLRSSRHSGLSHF
Text: as §1

EP2 [5] = target: T4, EP2; assay: EP2 binding (Ki)
Text: as §1

MONKEY = assay: Monkey intraocular pressure test; type: in vivo; details: Conc. 0.01 g/100 mL
Text: (§2) U.S. Pat. No. 7,091,231, incorporated by reference herein, describes the methods used to obtain the in vivo test results presented in Table 2.

DOG [6] = assay: Dog ocular hyperemia; type: in vivo; details: Conc. 0.01 g/100 mL
Text: as §2

DOG [7] = assay: Dog intraocular pressure test; type: in vivo; details: Conc. 0.01 g/100 mL
Text: as §2

T1 sequence (P35408 whole entry): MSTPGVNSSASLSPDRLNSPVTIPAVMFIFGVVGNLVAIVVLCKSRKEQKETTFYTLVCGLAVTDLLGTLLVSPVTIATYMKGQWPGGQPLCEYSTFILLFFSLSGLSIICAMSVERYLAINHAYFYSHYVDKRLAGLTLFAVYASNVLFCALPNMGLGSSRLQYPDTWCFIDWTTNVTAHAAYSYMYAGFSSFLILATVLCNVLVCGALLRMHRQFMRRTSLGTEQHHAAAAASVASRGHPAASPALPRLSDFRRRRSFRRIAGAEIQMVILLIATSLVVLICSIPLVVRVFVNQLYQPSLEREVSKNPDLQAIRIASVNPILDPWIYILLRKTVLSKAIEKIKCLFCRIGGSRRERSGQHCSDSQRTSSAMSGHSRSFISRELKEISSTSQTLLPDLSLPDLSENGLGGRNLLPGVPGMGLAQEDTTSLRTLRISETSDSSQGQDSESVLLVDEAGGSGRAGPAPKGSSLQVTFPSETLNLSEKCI
T4 sequence (P43116 whole entry): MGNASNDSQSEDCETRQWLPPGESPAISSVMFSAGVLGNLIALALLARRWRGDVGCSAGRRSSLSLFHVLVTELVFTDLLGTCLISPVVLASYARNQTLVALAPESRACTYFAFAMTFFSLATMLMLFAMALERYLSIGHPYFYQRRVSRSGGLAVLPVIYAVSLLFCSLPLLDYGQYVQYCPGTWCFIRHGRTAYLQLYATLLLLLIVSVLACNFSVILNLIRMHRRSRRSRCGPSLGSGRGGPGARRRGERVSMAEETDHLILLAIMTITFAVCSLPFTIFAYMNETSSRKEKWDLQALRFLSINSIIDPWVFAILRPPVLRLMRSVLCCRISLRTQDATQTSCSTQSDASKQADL

Structure (SMILES)	Ki (EP4 [1])	EC50 (EP4 [2])	EC50 (TP)	EC50 (EP3)	EC50 (EP2 [3])	EC50 (EP2 [4])	EC50 (DP)	EC50 (EP1)	Ki (EP2 [5])	MONKEY Max. ΔIOP (MONKEY)	DOG Max. hyperemia (DOG [6])	DOG Max. ΔIOP (DOG [7])
CCCCCC(O)/C=C/[C@@H]1[C@@H](CCCc2ccc(C(=O)O)s2)[C@H](Cl)C[C@H]1O (single isomer, unassigned) [Entry 15]	4 nM	0.2 nM	178 nM	6 nM	0.8 nM	0.4 nM	10 nM	1.3 nM	7 nM			
CCCCCC(O)/C=C/[C@@H]1[C@@H](CCCc2ccc(C(=O)O)s2)[C@H](Cl)C[C@H]1O (single isomer, unassigned) [Entry 16]	577 nM	42 nM		421 nM	26 nM	5 nM	7730 nM	86 nM	202 nM			
CCCCC[C@@H]1[C@@H](CCCc2ccc(C(=O)O)s2)[C@H](Cl)C[C@H]1O [Entry 1, 5-[3-((1R,2R,3R,5R)-5-Chloro-3-hydroxy-2-pentyl-cyclopentyl)-propyl]-thiophene-2-carboxylic acid]		9100 nM	187 nM	1740 nM	74 nM	1 nM	2080 nM		6 nM			
CCCCCCCC[C@@H]1[C@@H](CCCc2ccc(C(=O)OCCO)s2)[C@H](Cl)C[C@H]1O [Entry 1-8, 5-[3-((1R,2R,3R,5R)-5-Chloro-3-hydroxy-2-octyl-cyclopentyl)-propyl]-thiophene-2-carboxylic acid 2-hydroxy-ethyl ester]										53%	2.0	35%
CCCCCCCC[C@@H]1[C@@H](CCCc2ccc(C(=O)OC(C)C)s2)[C@H](Cl)C[C@H]1O [Entry 1-9]											0.9	22%
CCCCCC[C@@H]1[C@@H](CCCc2ccc(C(=O)O)s2)[C@H](Cl)C[C@H]1O [Entry 2, 5-[3-((1R,2R,3R,5R)-5-Chloro-2-hexyl-3-hydroxy-cyclopentyl)-propyl]-thiophene-2-carboxylic acid]	754 nM	9380 nM	2990 nM	5990 nM	405 nM	0.7 nM	1780 nM		4 nM			
CCCCCCCCC[C@@H]1[C@@H](CCCc2ccc(C(=O)O)s2)[C@H](Cl)C[C@H]1O [Entry 5, 5-[3-((1R,2R,3R,5R)-5-Chloro-3-hydroxy-2-nonyl-cyclopentyl)-propyl]-thiophene-2-carboxylic acid]	1230 nM	> 10000 nM		6660 nM	21 nM	3 nM			1.5 nM			
O=C(O)c1ccc(CCC[C@@H]2[C@@H](C=CCCCCCCO)[C@H](O)C[C@H]2Cl)s1 [Entry 6, 5-{3-[(1R,2R,3R,5R)-5-Chloro-3-hydroxy-2-(8-hydroxy-oct-1-enyl)-cyclopentyl]-propyl}-thiophene-2-carboxylic acid]					531 nM	14 nM	1000 nM	> 10000 nM	37 nM			
CCCC=C[C@@H]1[C@@H](CCCc2ccc(C(=O)O)s2)[C@H](Cl)C[C@H]1O [Entry 7, 5-[3-((1R,2R,3R,5R)-5-Chloro-3-hydroxy-2-pent-1-enyl-cyclopentyl)-propyl]-thiophene-2-carboxylic acid]		14800 nM	249 nM	1160 nM	303 nM	55 nM	573 nM		60 nM			
CCCCCC=C[C@@H]1[C@@H](CCCc2ccc(C(=O)O)s2)[C@H](Cl)C[C@H]1O [Entry 8, 5-[3-((1R,2R,3R,5R)-5-Chloro-2-hept-1-enyl-3-hydroxy-cyclopentyl)-propyl]-thiophene-2-carboxylic acid]	186 nM	9100 nM	230 nM	544 nM	112 nM	8 nM	337 nM		14 nM			
CCCCCCCCC=C[C@@H]1[C@@H](CCCc2ccc(C(=O)O)s2)[C@H](Cl)C[C@H]1O [Entry 9, 5-[3-((1R,2R,3R,5R)-5-Chloro-2-dec-1-enyl-3-hydroxy-cyclopentyl)-propyl]-thiophene-2-carboxylic acid]	695 nM	34200 nM			512 nM	15 nM	10500 nM		18 nM			
O=C(O)c1ccc(CCC[C@@H]2[C@@H](CCCCCCCCO)[C@H](O)C[C@H]2Cl)s1 [Entry 10, 5-{3-[(1R,2R,3R,5R)-5-Chloro-3-hydroxy-2-(8-hydroxy-octyl)-cyclopentyl]-propyl}-thiophene-2-carboxylic acid]		> 10000 nM			69 nM	< 1 nM	6130 nM		5 nM			
O=C(O)c1ccc(CCC[C@@H]2[C@@H](CCCCCCCO)[C@H](O)C[C@H]2Cl)s1 [Entry 11, 5-{3-[(1R,2R,3R,5R)-5-Chloro-3-hydroxy-2-(7-hydroxy-heptyl)-cyclopentyl]-propyl}-thiophene-2-carboxylic acid]	1520 nM	23700 nM			10 nM	0.3 nM	1950 nM		9 nM			
O=C(O)c1ccc(CCC[C@@H]2[C@@H](C=CCCCCCO)[C@H](O)C[C@H]2Cl)s1 [Entry 13, 5-{3-[(1R,2R,3R,5R)-5-Chloro-3-hydroxy-2-(7-hydroxy-hept-1-enyl)-cyclopentyl]-propyl}-thiophene-2-carboxylic acid]	2390 nM	31400 nM			46 nM	3.6 nM	253 nM		60 nM			
CCCCCCCC=C[C@@H]1[C@@H](CCCc2ccc(C(=O)O)s2)[C@H](Cl)C[C@H]1O [Entry 14, 5-[3-((1R,2R,3R,5R)-5-Chloro-3-hydroxy-2-non-1-enyl-cyclopentyl)-propyl]-thiophene-2-carboxylic acid]	1110 nM	> 10000 nM		3000 nM	15 nM	4 nM	11700 nM		6 nM			
CCCC/C=C/CC[C@@H]1[C@@H](CCCc2ccc(C(=O)O)s2)[C@H](Cl)C[C@H]1O [Entry 18, 5-(3-((1R,2R,3R,5R)-5-chloro-3-hydroxy-2-((E)-oct-3-enyl)cyclopentyl)propyl)thiophene-2-carboxylic acid]		713 nM		593 nM	51 nM	2 nM	2800 nM	4930 nM	18 nM			
CCCCCCCCCC[C@@H]1[C@@H](CCCc2ccc(C(=O)O)s2)[C@H](Cl)C[C@H]1O [Entry 19, 5-(3-((1R,2R,3R,5R)-5-chloro-2-decyl-3-hydroxycyclopentyl)propyl)thiophene-2-carboxylic acid]	7100 nM	> 10000 nM			1160 nM	2 nM			6 nM			
